The text below walks through data of patent US5929075A, “Apolipoprotein-B synthesis inhibitors” (Janssen Pharmaceutica, N.V., priority 1994, dated 1999).

For this test, the system named is apolipoprotein B. The test can be described thus: Apolipoprotein B (apo B) inhibition test in cultured human liver cells (Hepg2-cells). The test is classed as cell-based. The conditions noted are these: concentration of the drug needed to reduce apoB secretion to 50% of the control, overnight at 37° C. How it is done: Cultured human liver cells (Hepg2-cells), which synthesize and secrete low-density lipoproteins, were incubated overnight at 37° C. in a liquid medium containing radioactively labelled leucine. Thus radioactively labelled leucine was incorporated into the apolipoprotein B. The liquid medium was decanted and the apolipoprotein B was isolated by means of a double immunoprecipitation, i.e. first an apolipoprotein B-specific antibody (antibody1) was added to the liquid medium and subsequently a second antibody (antibody2) was added which binds specifically to the apoB-antibody1 -complex. The thus formed apoB-antibody1 -antibody2 complex precipitated and was isolated by centrifuge. Quantification of the amount of apolipoprotein B synthesized during the night resulted from measuring the radioactivity of the isolated complex. To measure the inhibiting activity of the test compound, that test compound was added to the liquid medium at different concentrations and the concentration of apolipoprotein B synthesized in the presence of a test compound (concentration apoB(after)) was compared to the concentration of apolipoprotein B which was synthesized in the absence of the test compound (concentration apoB(control)). For each experiment the inhibition of apolipoprotein-B formation was expressed as
% inhibition=100×(1-concentration of apoB(after)/concentration
When more experiments were carried out for the same concentration, the median value of the inhibition calculated for these experiments was calculated. IC50 -values (concentration of the drug needed to reduce apoB secretion to 50% of the control) were also computed.
For `CCC(C)n1ncn(-c2ccc(N3CCN(c4ccc(OC[C@H]5CO[C@](CSc6nncn6C(C)C)(c6ccc(Cl)cc6)O5)cc4)CC3)cc2)c1=O` (relative stereo) [Compound 52], the IC50 is 250 nM.

The compound `CC[C@@H](C)n1ncn(-c2ccc(N3CCN(c4ccc(OC[C@@H]5CO[C@@](CSc6nncn6C)(c6ccc(Cl)cc6)O5)cc4)CC3)cc2)c1=O` [Compound 40] yielded an IC50 of 23 nM.

As to `CCC(C)n1ncn(-c2ccc(N3CCN(c4ccc(OC[C@H]5CO[C@](CSc6ncn[nH]6)(c6ccc(Cl)cc6)O5)cc4)CC3)cc2)c1=O` (relative stereo) [Compound 76], the half-maximal inhibitory concentration (IC50) is 24 nM.

The compound `CCC(C)n1ncn(-c2ccc(N3CCN(c4ccc(OC[C@H]5CO[C@](CSc6ncnn6C)(c6ccc(F)cc6)O5)cc4)CC3)cc2)c1=O` (relative stereo) [Compound 63] gave an IC50 of 46 nM.

The compound `CCCCCn1cnn(-c2ccc(N3CCN(c4ccc(OC[C@@H]5CO[C@@](CSc6nncn6C)(c6ccc(Cl)cc6)O5)cc4)CC3)cc2)c1=O` (relative stereo) [Compound 18] registered an IC50 of 41 nM.

Turning to `Cn1ncnc1SC[C@]1(c2ccc(F)cc2F)OC[C@H](COc2ccc(N3CCN(c4ccc(-n5cnn(C6CCCC6)c5=O)cc4)CC3)cc2)O1` (relative stereo) [Compound 67], half-maximal inhibition (IC50) was put at 180 nM.

Compound `CCC(CC)n1cnn(-c2ccc(N3CCN(c4ccc(OC[C@@H]5CO[C@@](CSc6nncn6C)(c6ccc(F)cc6)O5)cc4)CC3)cc2)c1=O` (relative stereo) [Compound 12] had a half-maximal inhibitory concentration (IC50) of 190 nM.

For `CCC(CC)n1ncn(-c2ccc(N3CCN(c4ccc(OC[C@H]5CO[C@](CSc6ncnn6C)(c6ccc(F)cc6)O5)cc4)CC3)cc2)c1=O` (relative stereo) [Compound 64], the IC50 turned out to be 160 nM.

`CC(C)n1cnn(-c2ccc(N3CCN(c4ccc(OC[C@@H]5CO[C@@](CSc6nncn6C)(c6ccc(F)cc6)O5)cc4)CC3)cc2)c1=O` (relative stereo) [Compound 4] displayed an IC50 of 260 nM.

Compound `CCC(C)n1ncn(-c2ccc(N3CCN(c4ccc(OC[C@H]5CO[C@](CSc6nnc(O)n6C)(c6ccc(Cl)cc6)O5)cc4)CC3)cc2)c1=O` (relative stereo) [Compound 58] came in with an IC50 of 310 nM.

The compound `CCC(CC)n1cnn(-c2ccc(N3CCN(c4ccc(OC[C@H]5CO[C@](CSc6ncnn6C)(c6ccc(F)cc6)O5)cc4)CC3)cc2)c1=O` (relative stereo) [Compound 75] showed an IC50 of 120 nM.

For `CC(C)Cn1cnn(-c2ccc(N3CCN(c4ccc(OC[C@@H]5CO[C@@](CSc6nncn6C)(c6ccc(Cl)cc6)O5)cc4)CC3)cc2)c1=O` (relative stereo) [Compound 3], the IC50 worked out at 91 nM.

`CCC(C)n1cnn(-c2ccc(N3CCN(c4ccc(OC[C@H]5CO[C@](CSc6ncn[nH]6)(c6ccc(Cl)cc6)O5)cc4)CC3)cc2)c1=O` (relative stereo) [Compound 83]: the IC50 worked out at 15 nM.

For `CCC(C)n1cnn(-c2ccc(N3CCN(c4ccc(OC[C@@H]5CO[C@@](CSc6nncn6C)(c6ccc(F)cc6)O5)cc4)CC3)cc2)c1=O` (relative stereo) [Compound 9], the IC50 came to 110 nM.

For `CCC(C)n1cnn(-c2ccc(N3CCN(c4ccc(OC[C@H]5CO[C@](CSc6ncnn6C)(c6ccc(Cl)cc6)O5)cc4)CC3)cc2)c1=O` (relative stereo) [Compound 69], it took 26 nM to reach half-maximal inhibition (IC50).

`CC(C)n1ncn(-c2ccc(N3CCN(c4ccc(OC[C@@H]5CO[C@@](CSc6nncn6C)(c6ccc(Cl)cc6)O5)cc4)CC3)cc2)c1=O` (relative stereo) [Compound 33] yielded an IC50 of 91 nM.

As to `CCCCn1ncnc1SC[C@]1(c2ccc(Cl)cc2)OC[C@H](COc2ccc(N3CCN(c4ccc(-n5cnn(C(C)CC)c5=O)cc4)CC3)cc2)O1` (relative stereo) [Compound 79], half-maximal inhibition (IC50) required 46 nM.

`CCCn1cnnc1SC[C@]1(c2ccc(Cl)cc2)OC[C@H](COc2ccc(N3CCN(c4ccc(-n5cnn(C(C)CC)c5=O)cc4)CC3)cc2)O1` (relative stereo) [Compound 55] showed an IC50 of 78 nM.

In turn, `CCC(C)n1ncn(-c2ccc(N3CCN(c4ccc(OC[C@H]5CO[C@](CSc6ccncc6)(c6ccc(Cl)cc6)O5)cc4)CC3)cc2)c1=O` (relative stereo) [Compound 106] had an IC50 of 880 nM.

The compound `Cn1ncnc1SC[C@]1(c2ccc(F)cc2)OC[C@H](COc2ccc(N3CCN(c4ccc(-n5cnn(C6CCCC6)c5=O)cc4)CC3)cc2)O1` (relative stereo) [Compound 66] came in with an IC50 of 130 nM.

With `CCCn1cnn(-c2ccc(N3CCN(c4ccc(OC[C@@H]5CO[C@@](CSc6nncn6C)(c6ccc(Cl)cc6)O5)cc4)CC3)cc2)c1=O` (relative stereo) [Compound 8], the IC50 amounted to 130 nM.

Consider `CCC(C)N1CCN(c2ccc(N3CCN(c4ccc(OC[C@H]5CO[C@](CSc6nncn6C)(c6ccc(Cl)cc6)O5)cc4)CC3)cc2)C1=O` (relative stereo) [Compound 94], for which half-maximal inhibition (IC50) required 190 nM.

The compound `CCC(C)n1ncn(-c2ccc(N3CCN(c4ccc(OC[C@@H]5CO[C@@](CSc6nnc(C(F)(F)F)[nH]6)(c6ccc(Cl)cc6)O5)cc4)CC3)cc2)c1=O` (relative stereo) [Compound 49] registered an IC50 of 850 nM.

Consider `Cn1cnnc1SC[C@@]1(c2ccc(F)cc2F)OC[C@@H](COc2ccc(N3CCN(c4ccc(-n5ncn(C6CCCC6)c5=O)cc4)CC3)cc2)O1` (relative stereo) [Compound 13], for which inhibition was half-maximal at 510 nM (IC50).

`CC[C@H](C)n1ncn(-c2ccc(N3CCN(c4ccc(OC[C@@H]5CO[C@@](CSc6nncn6C)(c6ccc(Cl)cc6)O5)cc4)CC3)cc2)c1=O` [Compound 38] returned an IC50 of 65 nM.

`CC(C)Cn1ncn(-c2ccc(N3CCN(c4ccc(OC[C@H]5CO[C@](CSc6ncnn6C)(c6ccc(Cl)cc6)O5)cc4)CC3)cc2)c1=O` (relative stereo) [Compound 61] returned an IC50 of 81 nM.

As for `CC(C)n1cnn(-c2ccc(N3CCN(c4ccc(OC[C@H]5CO[C@](CSc6ncnn6C)(c6ccc(Cl)cc6)O5)cc4)CC3)cc2)c1=O` (relative stereo) [Compound 68], the 50% inhibitory concentration (IC50) was determined as 81 nM.

In turn, `CCCCn1cnnc1SC[C@@]1(c2ccc(Cl)cc2)OC[C@@H](COc2ccc(N3CCN(c4ccc(-n5cnn(C(C)CC)c5=O)cc4)CC3)cc2)O1` (relative stereo) [Compound 51] gave an IC50 of 47 nM.

In the case of `CCC(C)n1ncn(-c2ccc(N3CCN(c4ccc(OC[C@H]5CO[C@](CSc6ncnn6C)(c6ccc(Cl)cc6)O5)cc4)CC3)cc2)c1=O` (relative stereo) [Compound 60], it took 46 nM to reach half-maximal inhibition (IC50).

For the compound `CCC(CC)n1cnn(-c2ccc(N3CCN(c4ccc(OC[C@H]5CO[C@](CSc6ncnn6C)(c6ccc(F)cc6F)O5)cc4)CC3)cc2)c1=O` (relative stereo) [Compound 73], the IC50 amounted to 180 nM.

Consider `CCC(C)n1ncn(-c2ccc(N3CCN(c4ccc(OC[C@H]5CO[C@](CSc6ncnn6C)(c6ccc(F)cc6F)O5)cc4)CC3)cc2)c1=O` (relative stereo) [Compound 62], for which the IC50 came to 190 nM.

Turning to `CCC(C)n1ncn(-c2ccc(N3CCN(c4ccc(OC[C@H]5CO[C@](CSc6nc(C)co6)(c6ccc(Cl)cc6)O5)cc4)CC3)cc2)c1=O` (relative stereo) [Compound 107], the 50% inhibitory concentration (IC50) turned out to be 45 nM.

In the case of `CCC(C)n1cnn(-c2ccc(N3CCN(c4ccc(OC[C@H]5CO[C@](CSc6ncnn6C)(c6ccc(F)cc6F)O5)cc4)CC3)cc2)c1=O` (relative stereo) [Compound 71], the half-inhibitory concentration (IC50) amounted to 120 nM.

Compound `CCC(CC)n1ccn(-c2ccc(N3CCN(c4ccc(OC[C@H]5CO[C@](CSc6nncn6C)(c6ccc(Cl)cc6)O5)cc4)CC3)cc2)c1=O` (relative stereo) [Compound 122] registered an IC50 of 88 nM.

`CC(C)Cn1cnn(-c2ccc(N3CCN(c4ccc(OC[C@H]5CO[C@](CSc6ncnn6C)(c6ccc(Cl)cc6)O5)cc4)CC3)cc2)c1=O` (relative stereo) [Compound 87] had an IC50 of 69 nM.

`CCCCn1cnn(-c2ccc(N3CCN(c4ccc(OC[C@@H]5CO[C@@](CSc6nncn6C)(c6ccc(Cl)cc6)O5)cc4)CC3)cc2)c1=O` (relative stereo) [Compound 15]: inhibition was half-maximal at 48 nM (IC50).

In turn, `CCC(C)n1ncn(-c2ccc(N3CCN(c4ccc(OC[C@@H]5CO[C@@](CSc6nncn6C)(c6ccc(Cl)cc6)O5)cc4)CC3)cc2)c1=O` (relative stereo) [Compound 22, (±)-cis-4-[4-[4-[4-[[2-(4-chlorophenyl)-2-[[(4-methyl-4H-1,2,4-triazol-3-yl)thio]methyl]-1,3-dioxolan-4-yl]methoxy]phenyl]-1-piperazinyl]-phenyl]-2,4-dihydro-2-(1-methylpropyl)-3H-1,2,4-triazol-3-one] came in with an IC50 of 71 nM.

In the case of `CC(C)Cn1ncn(-c2ccc(N3CCN(c4ccc(OC[C@@H]5CO[C@@](CSc6nncn6C)(c6ccc(Cl)cc6)O5)cc4)CC3)cc2)c1=O` (relative stereo) [Compound 23], the IC50 came to 140 nM.

Regarding `CCC(C)n1ncn(-c2ccc(N3CCN(c4ccc(OC[C@H]5CO[C@](CSc6ccccn6)(c6ccc(Cl)cc6)O5)cc4)CC3)cc2)c1=O` (relative stereo) [Compound 105], the IC50 came to 99 nM.

For `CCC(C)n1ncn(-c2ccc(N3CCN(c4ccc(OC[C@@H]5CO[C@@](CSc6nncn6C)(c6ccc(F)cc6)O5)cc4)CC3)cc2)c1=O` (relative stereo) [Compound 28], the IC50 is 97 nM.

Regarding `CCC(C)n1ccn(-c2ccc(N3CCN(c4ccc(OC[C@H]5CO[C@](CSc6nncn6C)(c6ccc(F)cc6)O5)cc4)CC3)cc2)c1=O` (relative stereo) [Compound 126], half-maximal inhibition (IC50) required 140 nM.

The IC50 is the concentration needed to halve the response being measured.
